Source: ChEMBL document CHEMBL3046368, “Synthesis of benzothiazole derivatives and their biological evaluation as anticancer agents” (2012)

Columns and labels:
Assay type in all cases: functional
[1] = test system: MDA-MB-468; test: Cytotoxicity against Homo sapiens (human) MDA-MB-468 cells after 48 hr by SRB assay; details: MDA-MB-468, 48 h
[2] = test system: BT-549; test: Cytotoxicity against Homo sapiens (human) BT549 cells after 48 hr by SRB assay; details: BT-549, 48 h
[3] = test system: Hs-578T; test: Cytotoxicity against Homo sapiens (human) Hs578T cells after 48 hr by SRB assay
[4] = test system: MDA-MB-231; test: Cytotoxicity against Homo sapiens (human) MDA-MB-231 cells after 48 hr by SRB assay; details: MDA-MB-231, 48 h
[5] = test system: TK-10; test: Cytotoxicity against Homo sapiens (human) TK10 cells after 48 hr by SRB assay; details: TK-10, 48 h
[6] = test system: UO-31; test: Cytotoxicity against Homo sapiens (human) UO31 cells after 48 hr by SRB assay; details: UO-31, 48 h
[7] = test system: SN12C; test: Cytotoxicity against Homo sapiens (human) SN12C cells after 48 hr by SRB assay
[8] = test system: RXF 393; test: Cytotoxicity against Homo sapiens (human) RXF393 cells after 48 hr by SRB assay; details: RXF 393, 48 h
[9] = test system: ACHN; test: Cytotoxicity against Homo sapiens (human) ACHN cells after 48 hr by SRB assay
[10] = test system: A498; test: Cytotoxicity against Homo sapiens (human) A498 cells after 48 hr by SRB assay; details: A498, 48 h
[11] = test system: 786-0; test: Cytotoxicity against Homo sapiens (human) 786-0 cells after 48 hr by SRB assay; details: 786-0, 48 h
[12] = test system: SK-OV-3; test: Cytotoxicity against Homo sapiens (human) SKOV3 cells after 48 hr by SRB assay; details: SK-OV-3, 48 h
[13] = test system: OVCAR-8; test: Cytotoxicity against Homo sapiens (human) OVCAR8 cells after 48 hr by SRB assay; details: OVCAR-8, 48 h
[14] = test system: NCI/ADR-RES; test: Cytotoxicity against Homo sapiens (human) NCI/ADR-RES cells after 48 hr by SRB assay
[15] = test system: OVCAR-4; test: Cytotoxicity against Homo sapiens (human) OVCAR4 cells after 48 hr by SRB assay; details: OVCAR-4, 48 h
[16] = test system: IGROV-1; test: Cytotoxicity against Homo sapiens (human) IGROV1 cells after 48 hr by SRB assay; details: IGROV-1, 48 h
[17] = test system: UACC-257; test: Cytotoxicity against Homo sapiens (human) UACC257 cells after 48 hr by SRB assay; details: UACC-257, 48 h
[18] = test system: UACC-62; test: Cytotoxicity against Homo sapiens (human) UACC62 cells after 48 hr by SRB assay; details: UACC-62, 48 h
[19] = test system: SK-MEL-28; test: Cytotoxicity against Homo sapiens (human) SK-MEL-28 cells after 48 hr by SRB assay; details: SK-MEL-28, 48 h
[20] = test system: SK-MEL-5; test: Cytotoxicity against Homo sapiens (human) SK-MEL-5 cells after 48 hr by SRB assay; details: SK-MEL-5, 48 h
[21] = test system: M14; test: Cytotoxicity against Homo sapiens (human) M14 cells after 48 hr by SRB assay; details: M14, 48 h
[22] = test system: MDA-MB-435; test: Cytotoxicity against Homo sapiens (human) MDA-MB-435 cells after 48 hr by SRB assay; details: MDA-MB-435, 48 h
[23] = test system: U-251; test: Cytotoxicity against Homo sapiens (human) U251 cells after 48 hr by SRB assay; details: U-251, 48 h
[24] = test system: LOX IMVI; test: Cytotoxicity against Homo sapiens (human) LOXIMVI cells after 48 hr by SRB assay
[25] = test system: SF-539; test: Cytotoxicity against Homo sapiens (human) SF539 cells after 48 hr by SRB assay; details: SF-539, 48 h
[26] = test system: SF-268; test: Cytotoxicity against Homo sapiens (human) SF268 cells after 48 hr by SRB assay; details: SF-268, 48 h
[27] = test system: SF-295; test: Cytotoxicity against Homo sapiens (human) SF295 cells after 48 hr by SRB assay; details: SF-295, 48 h
[28] = test system: HT-29; test: Cytotoxicity against Homo sapiens (human) HT-29 cells after 48 hr by SRB assay; details: HT-29, 48 h
[29] = test system: COLO 205; test: Cytotoxicity against Homo sapiens (human) COLO205 cells after 48 hr by SRB assay; details: COLO 205, 48 h
[30] = test system: NCI-H522; test: Cytotoxicity against Homo sapiens (human) NCI-H522 cells after 48 hr by SRB assay; details: NCI-H522, 48 h
[31] = test system: NCI-H322M; test: Cytotoxicity against Homo sapiens (human) NCI-H322M cells after 48 hr by SRB assay
[32] = test system: EKVX; test: Cytotoxicity against Homo sapiens (human) EKVX cells after 48 hr by SRB assay
[33] = test system: A549; test: Cytotoxicity against Homo sapiens (human) A549 cells after 48 hr by SRB assay; details: A549, 48 h
[34] = Cytotoxicity against Homo sapiens (human) breast cancer cells assessed as cell growth at 10^-5 M after 48 hr by SRB assay relative to control; details: Cancer cell lines, read-out: Activity
[35] = Cytotoxicity against Homo sapiens (human) prostate cancer cells assessed as cell growth at 10^-5 M after 48 hr by SRB assay relative to control; details: Cancer cell lines, read-out: Activity
[36] = Cytotoxicity against Homo sapiens (human) ovarian cancer cells assessed as cell growth at 10^-5 M after 48 hr by SRB assay relative to control; details: Cancer cell lines, read-out: Activity
[37] = Cytotoxicity against Homo sapiens (human) melanoma cells assessed as cell growth at 10^-5 M after 48 hr by SRB assay relative to control; details: read-out: Activity
[38] = Cytotoxicity against Homo sapiens (human) CNSC cells assessed as cell growth at 10^-5 M after 48 hr by SRB assay relative to control; details: read-out: Activity
[39] = Cytotoxicity against Homo sapiens (human) NSCLC cells assessed as cell growth at 10^-5 M after 48 hr by SRB assay relative to control; details: read-out: Activity
[40] = Cytotoxicity against Homo sapiens (human) leukemia cells assessed as cell growth at 10^-5 M after 48 hr by SRB assay relative to control; details: read-out: Activity
[41] = test system: HL-60(TB); test: Cytotoxicity against Homo sapiens (human) HL-60(TB) cells after 48 hr by SRB assay; details: HL-60, 48 h
[42] = test system: NCI-H460; test: Cytotoxicity against Homo sapiens (human) NCI-H460 cells after 48 hr by SRB assay; details: NCI-H460, 48 h
[43] = test system: NCI-H226; test: Cytotoxicity against Homo sapiens (human) NCI-H226 cells after 48 hr by SRB assay; details: NCI-H226, 48 h
[44] = test system: NCI-H23; test: Cytotoxicity against Homo sapiens (human) NCI-H23 cells after 48 hr by SRB assay; details: NCI-H23, 48 h
[45] = test system: HOP-62; test: Cytotoxicity against Homo sapiens (human) HOP62 cells after 48 hr by SRB assay; details: HOP-62, 48 h

Which GI50 [1] does the source give for `O=C(Nc1ccc(F)cc1)Nc1nc2ccc(OC(F)(F)F)cc2s1` here?
The GI50 was 2.34 µM.

What about the GI50 [2] of the same compound?
The GI50 was 3.8 µM.

And the GI50 [3]?
Its GI50 is 3.09 µM.

And the GI50 [4]?
Its GI50 is 3.31 µM.

What about the GI50 [5] of the same compound?
The GI50 was 4.07 µM.

And the GI50 [6]?
Its GI50 is 3.47 µM.

And the GI50 [7]?
Its GI50 is 2.57 µM.

What about the GI50 [8] of the same compound?
Its GI50 is 2.69 µM.

And the GI50 [9]?
Its GI50 is 2.4 µM.

What about the GI50 [10] of the same compound?
The GI50 was 2.95 µM.

What about the GI50 [11] of the same compound?
The GI50 was 3.47 µM.

And the GI50 [12]?
Its GI50 is 2.57 µM.

What about the GI50 [13] of the same compound?
The GI50 was 4.27 µM.

What about the GI50 [14] of the same compound?
Its GI50 is 3.39 µM.

What about the GI50 [15] of the same compound?
Its GI50 is 2.95 µM.

What about the GI50 [16] of the same compound?
The GI50 was 3.89 µM.

And the GI50 [17]?
The GI50 was 3.55 µM.

And the GI50 [18]?
The GI50 was 3.55 µM.

What about the GI50 [19] of the same compound?
The GI50 was 3.63 µM.

And the GI50 [20]?
The GI50 was 2.45 µM.

What about the GI50 [21] of the same compound?
Its GI50 is 4.37 µM.

And the GI50 [22]?
The GI50 was 2.95 µM.

What about the GI50 [23] of the same compound?
Its GI50 is 3.98 µM.

What about the GI50 [24] of the same compound?
Its GI50 is 3.24 µM.

What about the GI50 [25] of the same compound?
The GI50 was 2.24 µM.

And the GI50 [26]?
Its GI50 is 3.72 µM.

And the GI50 [27]?
The GI50 was 2.57 µM.

And the GI50 [28]?
The GI50 was 3.89 µM.

What about the GI50 [29] of the same compound?
The GI50 was 2.09 µM.

What about the GI50 [30] of the same compound?
Its GI50 is 3.16 µM.

And the GI50 [31]?
The GI50 was 4.47 µM.

What about the GI50 [32] of the same compound?
Its GI50 is 2.63 µM.

What about the GI50 [33] of the same compound?
The GI50 was 3.47 µM.

And the growth at 10 µM [34]?
The growth at 10 µM was 19.2%.

And the growth at 10 µM [35]?
Its growth at 10 µM is 12.4%.

What about the growth at 10 µM [36] of the same compound?
Its growth at 10 µM is 12.9%.

And the growth at 10 µM [37]?
The growth at 10 µM was 12%.

What about the growth at 10 µM [38] of the same compound?
The growth at 10 µM was 21.1%.

And the growth at 10 µM [39]?
Its growth at 10 µM is 5.63%.

And the growth at 10 µM [40]?
The growth at 10 µM was 17.3%.

And the GI50 [41]?
The GI50 was 3.02 µM.

What about the GI50 [42] of the same compound?
Its GI50 is 3.02 µM.

And the GI50 [43]?
The GI50 was 2.82 µM.

What about the GI50 [44] of the same compound?
Its GI50 is 2.88 µM.

And the GI50 [45]?
Its GI50 is 3.8 µM.
